# Assay results from ChEMBL document CHEMBL1833788, “Selective water-soluble gelatinase inhibitor prodrugs” (J Med Chem, 2011).
# Assays:
# [1] = tested on: Mus musculus; test: Prodrug conversion in C57B1/6 mouse assessed as 4-[4-((Thiiran-2-yl)methylsulphonyl)phenoxy]benzamine level in plasma at […], iv administered as single bolus dose after 7 to 8 mins by reversed-phase HPLC/UV analysis; format: ADME, organism-based; conditions: in vivo
# [2] = tested on: Mus musculus; test: Prodrug conversion in C57B1/6 mouse assessed as 4-[4-((Thiiran-2-yl)methylsulphonyl)phenoxy]benzamine level in plasma at […], iv administered as single bolus dose after 11 to 12 mins by reversed-phase HPLC/UV analysis; format: ADME, organism-based; conditions: in vivo, read-out: Drug metabolism
# [3] = tested on: Mus musculus; test: Prodrug conversion in C57B1/6 mouse assessed as 4-[4-((Thiiran-2-yl)methylsulphonyl)phenoxy]benzamine level in plasma at […], iv administered as single bolus dose after 22 mins by reversed-phase HPLC/UV analysis; format: ADME, organism-based; conditions: in vivo
# [4] = tested on: Mus musculus; test: Prodrug conversion in C57B1/6 mouse assessed as 4-[4-((Thiiran-2-yl)methylsulphonyl)phenoxy]benzamine level in plasma at […], iv administered as single bolus dose after 42 mins by reversed-phase HPLC/UV analysis; format: ADME, organism-based; conditions: in vivo, 0.7 h, read-out: Drug metabolism
# [5] = tested on: Mus musculus; test: Prodrug conversion in C57B1/6 mouse assessed as 4-[4-((Thiiran-2-yl)methylsulphonyl)phenoxy]benzamine level in plasma at […], iv administered as single bolus dose after 240 mins by reversed-phase HPLC/UV analysis; format: ADME, organism-based; conditions: in vivo, 4 h, read-out: Drug metabolism
# [6] = tested on: Mus musculus; test: Prodrug conversion in C57B1/6 mouse assessed as N-(4-(4-(thiiran-2-ylmethylsulfonyl)phenoxy)phenyl)acetamide level in plasma at […], iv administered as single bolus dose after 4 to 5 mins by reversed-phase HPLC/UV analysis; format: ADME, organism-based; conditions: in vivo, read-out: Drug metabolism
# [7] = tested on: Mus musculus; test: Prodrug conversion in C57B1/6 mouse assessed as N-(4-(4-(thiiran-2-ylmethylsulfonyl)phenoxy)phenyl)acetamide level in plasma at […], iv administered as single bolus dose after 22 mins by reversed-phase HPLC/UV analysis; format: ADME, organism-based; conditions: in vivo
# [8] = tested on: Mus musculus; test: Prodrug conversion in C57B1/6 mouse assessed as N-(4-(4-(thiiran-2-ylmethylsulfonyl)phenoxy)phenyl)acetamide level in plasma at […], iv administered as single bolus dose after 42 mins by reversed-phase HPLC/UV analysis; format: ADME, organism-based; conditions: in vivo, 0.7 h
# [9] = tested on: Mus musculus; test: Clearance in C57B1/6 mouse plasma assessed as parent compound level at […], iv administered as single bolus dose; format: ADME, organism-based; conditions: in vivo
# [10] = tested on: Mus musculus; test: Volume of distribution in C57B1/6 mouse plasma assessed as parent compound level at […], iv administered as single bolus dose; format: ADME, organism-based; conditions: in vivo
# [11] = tested on: Mus musculus; test: Prodrug conversion in C57B1/6 mouse plasma assessed as parent compound level at […], iv administered as single bolus dose after 42 mins by reversed-phase LC/MS analysis; format: ADME, organism-based; conditions: in vivo, 0.7 h
# [12] = tested on: Mus musculus; test: Prodrug conversion in C57B1/6 mouse plasma assessed as parent compound level at […], iv administered as single bolus dose after 62 to 66 mins by reversed-phase LC/MS analysis; format: ADME, organism-based; conditions: in vivo, read-out: Drug metabolism
# [13] = tested on: Mus musculus; test: Prodrug conversion in C57B1/6 mouse plasma assessed as parent compound level at […], iv administered as single bolus dose after 120 to 123 mins by reversed-phase LC/MS analysis; format: ADME, organism-based; conditions: in vivo, read-out: Drug metabolism
# [14] = tested on: Mus musculus; test: Prodrug conversion in C57B1/6 mouse plasma assessed as parent compound level at […], iv administered as single bolus dose after 240 mins by reversed-phase LC/MS analysis; format: ADME, organism-based; conditions: in vivo, 4 h, read-out: Drug metabolism
# [15] = tested on: Mus musculus; test: AUC (0 to last) in C57B1/6 mouse plasma assessed as 4-[4-((Thiiran-2-yl)methylsulphonyl)phenoxy]benzamine level at […], iv administered as single bolus dose; format: ADME, organism-based; conditions: in vivo
# [16] = tested on: Mus musculus; test: AUC (0 to infinity) in C57B1/6 mouse plasma assessed as 4-[4-((Thiiran-2-yl)methylsulphonyl)phenoxy]benzamine level at […], iv administered as single bolus dose; format: ADME, organism-based; conditions: in vivo
# [17] = tested on: Mus musculus; test: Distribution half life in C57B1/6 mouse plasma assessed as 4-[4-((Thiiran-2-yl)methylsulphonyl)phenoxy]benzamine level at […], iv administered as single dose; format: ADME, organism-based; conditions: in vivo
# [18] = tested on: Mus musculus; test: Terminal half life in C57B1/6 mouse plasma assessed as 4-[4-((Thiiran-2-yl)methylsulphonyl)phenoxy]benzamine level at […], iv administered as single dose; format: ADME, organism-based; conditions: in vivo
# [19] = tested on: Mus musculus; test: Distribution half life in C57B1/6 mouse plasma assessed as N-(4-(4-(thiiran-2-ylmethylsulfonyl)phenoxy)phenyl)acetamide level at […], iv administered as single bolus dose; format: ADME, organism-based; conditions: in vivo
# [20] = tested on: Mus musculus; test: AUC (0 to infinity) in C57B1/6 mouse plasma assessed as N-(4-(4-(thiiran-2-ylmethylsulfonyl)phenoxy)phenyl)acetamide level at […], iv administered as single bolus dose; format: ADME, organism-based; conditions: in vivo, BLD = below limit of detection
# [21] = tested on: Mus musculus; test: Terminal half life in C57B1/6 mouse plasma assessed as N-(4-(4-(thiiran-2-ylmethylsulfonyl)phenoxy)phenyl)acetamide level at […], iv administered as single bolus dose; format: ADME, organism-based; conditions: in vivo, BLD = below limit of detection
# [22] = tested on: Mus musculus; test: Prodrug conversion in C57B1/6 mouse assessed as 4-[4-((Thiiran-2-yl)methylsulphonyl)phenoxy]benzamine level in plasma at […], iv administered as single bolus dose after 2 to 3 mins by reversed-phase HPLC/UV analysis; format: ADME, organism-based; conditions: in vivo
# [23] = tested on: Mus musculus; test: Prodrug conversion in C57B1/6 mouse assessed as N-(4-(4-((Thiiran-2-ylmethyl)sulfonyl)phenoxy)phenyl) hydroxylamine level in plasma at […], iv administered as single dose by reversed-phase LC/MS analysis; format: ADME, organism-based; conditions: in vivo
# [24] = tested on: Mus musculus; test: Prodrug conversion in C57B1/6 mouse assessed as N-(4-(4-((Thiiran-2-ylmethyl)sulfonyl)phenoxy)phenyl) hydroxylamine level in urine at […], iv administered as single dose by reversed-phase LC/MS analysis; format: ADME, organism-based; conditions: in vivo
# [25] = tested on: Mus musculus; test: Prodrug conversion in C57B1/6 mouse plasma assessed as parent compound level at […], iv administered as single bolus dose after 2 to 3 mins by reversed-phase LC/MS analysis; format: ADME, organism-based; conditions: in vivo, read-out: Drug metabolism
# [26] = tested on: Mus musculus; test: Prodrug conversion in C57B1/6 mouse plasma assessed as parent compound level at […], iv administered as single bolus dose after 7 to 8 mins by reversed-phase LC/MS analysis; format: ADME, organism-based; conditions: in vivo
# [27] = tested on: Mus musculus; test: Prodrug conversion in C57B1/6 mouse plasma assessed as parent compound level at […], iv administered as single bolus dose after 11 to 12 mins by reversed-phase LC/MS analysis; format: ADME, organism-based; conditions: in vivo, read-out: Drug metabolism
# [28] = tested on: Mus musculus; test: Prodrug conversion in C57B1/6 mouse plasma assessed as parent compound level at […], iv administered as single bolus dose after 22 mins by reversed-phase LC/MS analysis; format: ADME, organism-based; conditions: in vivo, read-out: Drug metabolism
# [29] = tested on: Mus musculus; test: Prodrug conversion in C57B1/6 mouse assessed as N-(4-(4-(thiiran-2-ylmethylsulfonyl)phenoxy)phenyl)acetamide level in plasma at […], iv administered as single bolus dose after 2 to 3 mins by reversed-phase LC/MS analysis; conditions: in vivo
# [30] = tested on: Mus musculus; test: Prodrug conversion in C57B1/6 mouse assessed as N-(4-(4-(thiiran-2-ylmethylsulfonyl)phenoxy)phenyl)acetamide level in plasma at […], iv administered as single bolus dose after 7 to 8 mins by reversed-phase LC/MS analysis; conditions: in vivo
# [31] = tested on: Mus musculus; test: Prodrug conversion in C57B1/6 mouse assessed as N-(4-(4-(thiiran-2-ylmethylsulfonyl)phenoxy)phenyl)acetamide level in plasma at […], iv administered as single bolus dose after 11 to 12 mins by reversed-phase LC/MS analysis; conditions: in vivo
compound,measurement,setting,value
Cl.N=C(N)NCCC[C@H](N)C(=O)Nc1ccc(Oc2ccc(S(=O)(=O)CC3CS3)cc2)cc1 (stereo partly specified),Drug metabolism,[1],4.5 µM
same,concentration,[2],2450 nM
same,Drug metabolism,[3],0.787 µM
same,concentration,[4],207 nM
same,concentration,[5],14.5 nM
same,concentration,[6],231 nM
same,Drug metabolism,[7],0.0627 µM
same,Drug metabolism,[8],0.0358 µM
same,CL,[9],58.2 mL/min/kg
same,Vd,[10],0.0978 L/kg
same,Drug metabolism,[11],0.0872 µM
same,concentration,[12],38.5 nM
same,concentration,[13],17.1 nM
same,concentration,[14],8.3 nM
same,AUClast,[15],137 µM·min
same,AUC,[16],138 µM·min
same,alphat1/2,[17],2.9 min
same,beta t1/2,[18],1.15 h
same,alphat1/2,[19],12 min
same,AUC,[20],BLD
same,beta t1/2,[21],BLD
same,Drug metabolism,[22],12.3 µM
same,Drug metabolism,[23],Not Active
same,Drug metabolism,[24],Not Active
same,concentration,[25],35100 nM
same,Drug metabolism,[26],1.28 µM
same,concentration,[27],1580 nM
same,concentration,[28],138 nM
same,Drug metabolism,[29],0.0354 µM
same,Drug metabolism,[30],0.176 µM
same,Drug metabolism,[31],0.149 µM
